Assay results published in patent US11807881B2, “Polypeptide, fusion polypeptide, and antibiotic against gram-negative bacteria comprising same” (priority 2020, dated 2023).

Tests used:
P. aeruginosa = test: MIC of polymyxin-based antibiotics with LNT101 (broth microdilution); format: cell-based; details: for reduction of MIC of the polymyxin-based antibiotic in combination with LNT101: LNT101 endolysin 1 μM; for MIC of antibiotics: P. aeruginosa 1×10^5 CFU/ml, 37° C. 18 hours, combination with LNT101 endolysin 1 μM, otherwise PBS
Protocol: The synergy effect by treatment in combination of the polymyxin-based antibiotic having a mechanism acting on the cell membrane of bacterium and endolysin LNT101 was confirmed. Specifically, polymyxin B (32 μg/ml-0.03 μg/ml) and colistin (128 μg/ml-0.1 μg/ml) were diluted by ½ per well in a microplate, and then a LNT101 endolysin 1 μM combination treatment group and the same amount of PBS treatment group was made. In all wells, P. aeruginosa 1×10^5 CFU/ml was treated by total 100 μl. After that, they were cultured at 37° C. for 18 hours.
The MIC change of the polymyxin-based antibiotic by combination treatment of the polymyxin-based antibiotic (polymyxin B, Colistin) and LNT101 endolysin at various concentrations was confirmed, and shown in Table 3 below.

E. coli(ATCC 8739) = test: MIC of polymyxin-based antibiotics with LNT102 (broth microdilution); format: cell-based; details: + PBS or + LNT102 endolysin 1 μM, 37° C. 18 hours
Protocol: (§1) A synergy effect by combination treatment of a polymyxin-based antibiotic having a mechanism acting on the cell membrane of bacterium and endolysin LNT102 purified in Example 2.2 was confirmed. Specifically, after treating 4 μg/ml Polymyxin B to the 96 well microplate row A, serial dilution was performed by ½ in rows B-G. Polymyxin was not treated to the row H. After treating 8 μg/ml Colistin to the 96 well microplate row A, a combination treatment group in which LNT102 endolysin 1 μM was further treated and a PBS treatment group in the same amount were made. All wells were treated with Pseudomonas aeruginosa and Escherichia coli in an amount of 1×10^5 CFU/ml, total 100 μl, respectively. After that, they were cultured at 37° C. for 18 hours.
(§2) The MIC change of the polymyxin-based antibiotics by combination treatment of the polymyxin-base antibiotics (polymyxin B, Colistin) at various concentrations and LNT102 endolysin was measured and shown in Table 5 below.

[1] = system: P. aeruginosa (ATCC 27853); test: as above; format: cell-based; details: + PBS or + LNT102 endolysin 1 μM, 37° C. 18 hours
Protocol: as §1, §2

[2] = system: A. baumannii (ATCC 19606); test: as above; format: cell-based; details: + PBS or + LNT102 endolysin 1 μM, 37° C. 18 hours
gram negative bacteria = test: MIC change of polymyxin-based antibiotics with LNT102, all strains of Table 5; format: cell-based, P. aeruginosa, A. baumannii, E. coli; details: LNT102 endolysin 1 μM; maximum over the strains of Table 5
Protocol: as §1, §2

[3] = system: Pseudomonas aeruginosa PA01; test: Galleria mellonella Pseudomonas aeruginosa infected model, viability; format: in vivo; details: PA01 50 CFU/larva; LNT101 0.6 or 6 μg/larva, Colistin 0.5 μg/larva; observation for 72 hours
Protocol: The Pseudomonas aeruginosa killing ability of the endolysin LNT101 was also confirmed in vivo. As an animal model for the in vivo effectivity evaluation, Galleria mellonella was used. The Galleria mellonella model was divided into the healthy group (non-infection group), Pseudomonas aeruginosa infected group (drug non-administration group), 2 LNT101 administration groups in which LNT101 was administered into the infection model, Colistin administration group in which colistin was administered into the Pseudomonas aeruginosa infected model, and combination administration group in which LNT101 and colistin were administered in combination into the Pseudomonas aeruginosa infected model to progress an experiment, and 10 of Galleria mellonella per each group was used.
The Pseudomonas aeruginosa infected model was prepared by infecting Pseudomonas aeruginosa PA01 at the LD80 concentration, 50 CFU/larva, and LNT101 was administered at 0.6 μg/larva (3 mg/Kg) and 6 μg/larva (30 mg/Kg), respectively. Colistin was administered at 0.5 μg/larva (2.5 mg/Kg), and for administration in combination, Colistin at 0.5 μg/larva (2.5 mg/Kg) and LNT101 at 6 μg/larva (30 mg/Kg) were administered. […] In particular, in the LNT101 6 μg/larva (30 mg/Kg) administration group, the viability of 30% was confirmed.

gram negative bacterium = test: CFU reduction evaluation on various gram negative bacterium; format: cell-based
Protocol: For this, Endolysin LNT101 and LNT102 at a concentration of 2 μM and each 1×10^6 CFU of Pseudomonas aeruginosa (PA01; ATCC 15692), Acinetobacter baumannii (ATCC 17978), Escherichia coli (ATCC 8739), Klebsiella pneumoniae (ATCC 13883), Enterobacter aerogenes (CCARM 16006), and Salmonella enteritidis (ATCC 13076) was added in reaction buffer (20 mM Tris-Cl, pH 7.5) so that the final volume was 200 μl, and it was left at 37° C. for 2 hours. In 2 hours, the number of colonies of each gram negative bacterium was confirmed, and the result was shown in FIG. 8 (in FIG. 8, PA90 represents endolysin LNT101 and mtPA90 represents endolysin LNT102, respectively).
The endolysin LNT102 at a concentration of 0.1, 0.5, 2.5 μM, and each 1×10^6 CFU of Pseudomonas aeruginosa, Acinetobacter baumannii, and Escherichia coli was added in reaction buffer (20 mM Tris-Cl, pH 7.5) so that the final volume was 200 μl, and it was left at 37° C. for 2 hours.
In order to confirm the killing ability against gram negative bacterium of the fusion polypeptide LNT103 prepared in Example 3.2, CFU reduction evaluation was performed for various gram negative bacterium. In order to perform the CFU reduction evaluation, 2 μM of each of LNT101, LNT102, and LNT103 prepared in Example 3, and 1×10^6 CFU of each of Pseudomonas aeruginosa (PA01; ATCC 15692), Acinetobacter baumannii (ATCC 17978), Escherichia coli (ATCC 8739), Klebsiella pneumoniae (ATCC 13883), and Enterobacter aerogenes (CCARM 16006) were added to reaction buffer (20 mM Tris-Cl, pH7.5) so that the final volume was 200 μl, and it was left at 37° C. for 2 hours. After that, the number of the colonies of each gram negative bacterium was confirmed to compare and evaluate the antibiotic effect of each polypeptide. As a control group, the PBS treatment group (treating PBS in the same volume as the fusion polypeptide) was used.
In addition, the same test was performed by using the fusion polypeptide LNT103, and CecA-LNT101 at a concentration of 2 μM, and the result was shown in FIG. 15. For comparison, the same test was performed for groups treated with LNT102 or PBS.
On the other hand, in order to compare the antibacterial activity in case that a protein other than endolysin (LNT102 or LNT101) was fused to Cecropin A, the killing ability against gram negative bacterium of the fusion polypeptide LNT103 and cecropin A-EGFP fusion protein (a protein in which EGFP (GenBank Accession No. AAB02572.1) having no endolysin activity by replacing LNT102 in LNT103) was evaluated. For this, the proteins were treated in an amount of 0.2 μM or 2 μM, respectively, to perform the CFU reduction test. […] In particular, it could be confirmed that the CFU Counting result for all the tested gram negative bacterium killed all bacterium treated with 0, when LNT103 2 μM was treated.
Furthermore, the killing ability against gram negative bacterium according to the concentration and/or treatment time of the fusion polypeptide LNT103 was tested. Specifically, the fusion polypeptide LNT103 at a concentration of 0.1, 0.3, 0.9, or 2.7 μM and 1×10^6 CFU of Pseudomonas aeruginosa (PA01; ATCC 15692) or Acinetobacter baumannii (ATCC 19606) were added to reaction buffer (20 mM Tris-Cl, pH7.5) so that the final volume was 200 μl, and it was left at 37° C. for 2 hours, and then the number of the colonies was confirmed, and the result was shown in A of FIG. 17.
In addition, the fusion polypeptide LNT103 at a concentration of 2 μM and 1×10^6 CFU of Pseudomonas aeruginosa (PA01; ATCC 15692) were added to reaction buffer (20 mM pH7.5) so that the final volume was 200 μl, and in 0, 20 minutes, 40 minutes and 60 minutes at 37° C., the number of the colonies was confirmed, and the result was shown in B of FIG. 17. […]

Molecule | reduction of MIC of the polymyxin-based antibiotic in combination with LNT101 (P. aeruginosa) [%] | MIC of antibiotics (P. aeruginosa) [µg/mL] | MIC of the polymyxin-based antibiotic (E. coli(ATCC 8739)) [µg/mL] | MIC of the polymyxin-based antibiotic [1] [µg/mL] | MIC of the polymyxin-based antibiotic [2] [µg/mL] | reduction of MIC of the polymyxin-based antibiotic in combination with LNT102 (gram negative bacteria) | viability of Galleria mellonella [3] | counting result (gram negative bacterium; 2 μM, all the tested bacterium (FIG. 15)) [log CFU/ml] | killing ability (number of colonies) (gram negative bacterium; 2 μM, 2 hours, 37° C., P. aeruginosa PA01, A. baumannii ATCC 17978, E. coli ATCC 8739, K. pneumoniae ATCC 13883, E. aerogenes CCARM 16006, S. enteritidis ATCC 13076) | killing ability (number of colonies) (gram negative bacterium; 0.1, 0.5, 2.5 μM, 30 minutes, 1 hour and 2 hours, Pseudomonas aeruginosa, Acinetobacter baumannii, Escherichia coli)
polymyxin B | 50 | 4 | 0.5 | 0.5 | 0.5 | reduced by 1/16 times at maximum |  |  |  | 
Colistin | 50 | 8 | 2 | 2 | 2 | reduced by 1/16 times at maximum | the viability was increased |  |  | 
CecA-LNT101: fusion polypeptide in which Cecropin A was fused to endolysin LNT101; SEQ ID NO: 16 used in the tests (protein, synthetic_Fusion Polypeptide CecA-LNT101 with MAS, His tag, and extra sequence) MASKWKLFKKIEKVGQNIRDGIIKAGPAVAVVGQATQIAKGSGSGSMGTVLKRGDRGSAVEDLQMKLRVAGYAVSADGIFGGDTEKAVRDFQASKALVVDGKVGPATLAELAKSATVPAKWEAIPFPTANKSRSAAMPTLNAVGAMTGTDSRLLATFASIESAFDYTVKASTSSATGWFQFLDATWDDMIKAHGSKYGIPKDPTRALRKDPRANALMGAEFLKGNAAVLRPVINREPSDTDLYLAHFLGAGGAKKFLSADQKTLGEVLFPKPAKANPSIFSNKGVPRTLAEIYKLFEDKVSKHRALEHHHHHH |  |  |  |  |  |  |  | 0 |  | 
LNT102: endolysin LNT101 variant with 15 amino acid mutations, SEQ ID NO: 6, purified with 6× His tag (protein, 6xHis tag; synthetic_Endolysin LNT102) MGTVLKRGDRGSAVEDLQMKLNVAGYNLSADGIFGGDTEKAVRDVQAGAGLVVDGKVGPKTLYAIAKSATVPAKWEAIPFPTANKSRSAAMPTLNAVGAMTGVDSRLLATFASIESAFDYTVKAKTSSATGWFQFLDATWDDMIKAYGSKYGIPKDPTRALRKDPRANALMGAEFIKGNAAVLRPVINREPSDTDLYLAHFLGAGGAKKFLSADQKTLGEVLFPKPAKANPSIFSNKGVPRTLAEIYKLFEDKVSKHRA |  |  |  |  |  |  |  |  | more excellent killing ability against gram negative bacterium in the same dose-, compared to LNT101 | had the killing ability against gram negative bacterium in all the tested treatment doses and time
